# Measurements from patent publication US8993587B2, “Combination of syrosingopine and mitochondrial inhibitors for the treatment of cancer and immunosuppression” (Universitat Basel, priority 2011, dated 2015).
# Where a name gives a salt, the structure may show the parent alone. Read-outs that look alike come from different tables or passages of the source.
# Experiments:
# [1] = test system: mouse mast cell line 6.5; assay: AlamarBlue cell proliferation assay, mouse mast cell line 6.5; type: cell-based
# Procedure: (§1) AlamarBlue conversion cell proliferation assay. […] All data points were performed in tripliclate.
# [2] = test system: murine 6.5 cells (inner mitochondrial membrane potential); assay: Mitochondrial membrane potential by TMRM fluorescence assay; type: cell-based, mouse; conditions: TMRM 100 nM 20 min, control peak 403, syrosingopine pre-incubation 4 h (highest amount), FCCP pre-treatment 1 h (FIG. 11)
# Procedure: Murine 6.5 cells were treated with TMRM (panels 1-6), and in addition pre-incubated with FCCP (panel 2), syrosingopine at 0.1 μM (panel 3), 0.5 μM (panel 4), 2 μM (panel 5) or at 5 μM (panel 6) and fluorescence intensity was measured. Thin lines: fluorescence intensity of control cells or FCCP-treated cells (panel 2). Heavy lines indicate cells pre-incubated additionally with syrosingopine (panels 3-6). X-axis indicates fluorescence intensity, Y-axis indicates relative cell numbers.
# Murine 6.5 cells were treated for 20 min with the potentiometric fluorescent dye TMRM (tetramethylrhodamine methyl ester, AbD Serotec, 100 nM) and the fluorescence intensity was measured at 575 nm emission after excitation at 488 nm using a flow cytometer (CellLabQuanta, Beckman Coulter). This dye accumulates in the mitochondrial matrix when the inner membrane potential is more positive outside due to the extrusion of protons. […] The effect of syrosingopine was assessed by pre-incubating cells with increasing concentrations of syrosingopine for 4 h as indicated, followed by TMRM staining.
# [3] = test system: mouse mast cell line 6.5
# [4] = test system: cancer test cell lines; assay: Interaction of rauwolfia-related compounds with metformin; type: cell-based
# Text: 6.5 cells show many features of oncogenic transformation such as loss of growth-factor (IL3) dependence and signaling pathway addiction. […]. These cells display exquisite sensitivity to many clinical drugs. […].
# [5] = test system: OPM2 cells; assay: AlamarBlue cell proliferation assay, OPM2; type: cell-based, human; conditions: for growth inhibition, combined versus each compound singly: syrosingopine titration, metformin 5 mM, 3 days (FIG. 1B)
# Procedure: as §1
# [6] = test system: RPMI8226 cells; assay: AlamarBlue cell proliferation assay, RPMI8226; type: cell-based, human; conditions: syrosingopine titration, metformin 5 mM, 3 days
# Procedure: as §1
# [7] = test system: Jurkat cells; assay: AlamarBlue cell proliferation assay, Jurkat; type: cell-based, human; conditions: syrosingopine titration, metformin 5 mM, 3 days (FIG. 1D)
# Procedure: as §1
# [8] = test system: K562 cells; assay: AlamarBlue cell proliferation assay, K562; type: cell-based, human; conditions: syrosingopine titration, metformin 5 mM, 3 days (FIG. 1E)
# Procedure: as §1
# [9] = test system: OPM2 cells; assay: Apoptosis assay (annexin V / propidium iodide FACS), OPM2; type: cell-based, human; conditions: 5 μM syrosingopine, 2 mM metformin, singly or combined, 3 days (FIG. 3)
# Procedure: (§2) OPM2 and RPM18226 cells were seeded at a density of 100,000 cells/5 ml medium with addition of compounds. […] RPM18226: 2 μM syrosingopine (S), 1 mM metformin (M). […] Annexin V is an apoptotic marker and was detected using a FITC-coupled antibody on the FL1-channel. Propidium iodide (PI) exclusion staining for vital cells was detected simultaneously on the FL3-channel. For each measurement, the PI and annexin V negative cells represent the viable cell population (white bars). Early apoptotic cells are PI-negative, annexin V-positive (hatched bars) and late apoptotic cells are PI-positive, annexin V-positive (black bars). Bars are plotted on the Y-axis as a percentage of the total cell population.
# (§3) Apoptosis was determined by Annexin V-FITC (Invitrogen) and propidium iodide counter-staining, and cells were analysed by FACS to distinguish between viable/early apoptotic/late apoptotic cell sub-populations. Cells were seeded at a density of 100,000 cells/5 ml medium with addition of compounds as indicated. 500 μl of culture was harvested after 3 days and the cells were washed and stained with PI/Annexin V before FACs analysis.
# [10] = test system: RPMI8226 cells; assay: Apoptosis assay (annexin V / propidium iodide FACS), RPMI8226; type: cell-based, human; conditions: 2 μM syrosingopine, 1 mM metformin, singly or combined, 3 days (FIG. 3)
# Procedure: as §2, §3
# [11] = test system: 6.5 cell tumors in DBA mice; conditions: mouse, in vivo
# Procedure: Drug treatment commenced when tumors reached 100 mm^2 in size. Mice were separated into treatment groups and injected intra-peritoneally with PBS (horizontal bars), syrosingopine (S, filled diamonds, 2 mg/kg body weight), metformin (M, filled triangles, 250 mg/kg body weight) and metformin plus syrosingopine (S+M, crossed squares) daily for 15 days. Mice were sacrificed when tumor size became excessive (day 15) and tumors were dissected for measurement. (A) Chart showing tumor area (in mm^2) measured over the course of the treatment, d=days. (B) Mean body weight (g) of the mice at the time of sacrifice. Figures (n) above each bar indicate the number of mice per treatment group.
# 4×10^56.5 cells were injected in 150 μl of PBS into the flanks of immuno-compatible DBA mice. Tumor progression was monitored and treatment was started when tumor area reached 100 mm^2 in size. Mice were injected intra-peritoneally daily with metformin (250 mg/kg body weight), syrosingopine (2 mg/kg body weight) or combined for 15 days before being sacrificed for tumor tissue measurements.
# [12] = test system: HL60 cells; type: cell-based, human; conditions: oligomycin at a concentration below 1 nM, 3 days (FIG. 10B)
# Procedure: as §1
# [13] = test system: human peripheral blood leukocytes; assay: Phytohaemagglutinin-stimulated T cell proliferation; type: cell-based; conditions: PHA 10 μg/ml; day 3; syrosingopine titration with or without metformin 4 mM (FIG. 7, right)
# Procedure: Human peripheral blood leukocytes were cultured in presence or absence of phytohaemagglutinin.
# Normal human buffy coat cells were obtained from a local blood donation center in accordance with the ethical guidelines. 80 ml of blood was diluted with 200 ml of Iscove's medium and overlayed on a Ficoll gradient. The gradient was centrifuged at 1400×g for 5 minutes to separate the leukocyte fraction from erythrocytes. Cells were plated on coated tissue culture dishes for 1 hour to remove adherent cells, and the remaining suspension cells were collected by centrifugation and counted with a haemocytometer. 50,000 cells were seeded per well in 96-well dishes and compounds were added according to the various treatment regimes to a final medium volume of 150 μl. For stimulation, phytohemagglutinin was added to a final concentration of 10 μg/ml. At day 3, proliferation was determined by AlamarBlue assay.
# [14] = 6.5 cells, agent at fixed, non- or minimally toxic concentration (FIG. 8) with increasing syrosingopine, 3 days
compound,measurement,setting,value
"N#CC(C#N)=NNc1ccc(OC(F)(F)F)cc1 [FCCP, Carbonyl cyanide-p-trifluoromethoxyphenylhydrazone]",synergistic killing with syrosingopine,[1],induced synergistic killing
same,TMRM fluorescence peak,[2],42 arbitrary units
"O=C(CC(=O)C(F)(F)F)c1cccs1 [TTFA, 2-Thenoyltrifluoroacetone]",synergistic killing with syrosingopine,[1]; [14],Synergistic killing
N#CC(=C(/N)Sc1ccccc1N)/C(C#N)=C(\N)Sc1ccccc1N [U0126],sensitivity of 6.5 cells to inhibitor,[3],sensitive to nanomolar concentrations
COC(=O)C1=CO[C@@H](C)[C@H]2CN3CCc4c([nH]c5ccccc45)[C@@H]3C[C@H]12 [ajmalicine],interaction with metformin,[4],do not show significant interaction
"CCCCCC[C@H]1C(=O)O[C@H](C)[C@H](NC(=O)c2cccc(NC=O)c2O)C(=O)O[C@@H](C)[C@@H]1OC(=O)CC(C)C [antimycin A, Antimycin A]",synergistic killing with syrosingopine,[1],Synergistic killing
COC(=O)[C@H]1[C@H]2C[C@H]3c4[nH]c5ccccc5c4CCN3C[C@@H]2CC[C@@H]1O.Cl [corynanthine HCl],interaction with metformin,[4],do not show significant interaction
"CN(C)C(=N)NC(=N)N [metformin, 3-(diaminomethylidene)-1,1-dimethylguanidine hydrochloride]",inhibition at 5000 µM,"[1]; Mus musculus, Mast cell, 72 h, 6.5 cells, metformin alone at 5 mM, 3 days (FIG. 1A), read-out: inhibition of growth",20%
same,"growth inhibition, combined versus each compound singly",[5]; OPM2,only a marginal effect
same,"growth inhibition, combined versus each compound singly",[6],only a marginal effect
same,"growth inhibition, combined versus each compound singly",[7],only a marginal effect
same,"growth inhibition, combined versus each compound singly",[8],only a marginal effect
same,apoptotic induction (annexin V / PI),[9],No apoptotic induction
same,apoptotic induction (annexin V / PI),[10],No apoptotic induction
same,body weight at sacrifice,[11],no significant difference in body weight
"CC[C@@H]1/C=C/C=C/C[C@H](C)C(O)[C@](C)(O)C(=O)[C@H](C)[C@@H](O)[C@H](C)C(=O)[C@H](C)[C@@H](O)[C@H](C)/C=C/C(=O)O[C@H]2[C@@H](C)[C@@H](CC1)O[C@@]1(CC[C@@H](C)[C@@H](C[C@H](C)O)O1)[C@@H]2C (stereo partly drawn) [oligomycin, Oligomycin]",toxicity of the mitochondrial inhibitor alone,"[1]; 6.5 cells, absence of syrosingopine, concentrations employed for synergistic killing, 3 days (FIG. 9)",without toxic effect
same,synergistic killing with syrosingopine,[1]; [14],induced synergistic cell killing
same,killing in combination with syrosingopine,"[5]; OPM2, oligomycin at a concentration below 1 nM, 3 days (FIG. 10C)",kills human cancer lines
same,killing in combination with syrosingopine,[12],kills human cancer lines
"N=C(N)NC(=N)NCCc1ccccc1 [phenformin, 1-(diaminomethylidene)-2-(2-phenylethyl)guanidine]","growth inhibition, phenformin alone","[1]; 6.5 cells, concentrations up to 10 μM, 3 days (FIG. 6, left)",no growth inhibition
same,synergy with syrosingopine,"[1]; 6.5 cells, phenformin 10 μM combined with increasing concentrations of syrosingopine, 3 days (FIG. 6, right)",strong synergistic effect
COC(=O)[C@H]1[C@H]2C[C@H]3c4[nH]c5ccccc5c4CCN3C[C@H]2CC[C@@H]1O [rauwolscine HCl],interaction with metformin,[4],do not show significant interaction
COC(=O)[C@H]1[C@H]2C[C@@H]3c4[nH]c5cc(OC)ccc5c4CCN3C[C@H]2C[C@@H](OC(=O)/C=C/c2cc(OC)c(OC)c(OC)c2)[C@@H]1OC [rescinnnamine],interaction with metformin,[4],do not show significant interaction
COC(=O)[C@H]1[C@H]2C[C@@H]3c4[nH]c5cc(OC)ccc5c4CCN3C[C@H]2C[C@@H](OC(=O)c2cc(OC)c(OC)c(OC)c2)[C@@H]1OC [reserpine],interaction with metformin,"[1]; 6.5 cells, reserpine over a range of concentrations, metformin 5 mM (FIG. 4)",No interaction
same,interaction with metformin,"[5]; OPM2 cells, reserpine over a range of concentrations, metformin 5 mM (FIG. 4)",No interaction
same,interaction with metformin,[4],do not show significant interaction
COc1ccc2c3c([nH]c2c1)[C@H]1C[C@H]2[C@H](C[C@@H](O)[C@H](OC)[C@H]2C(=O)O)CN1CC3 [reserpinnic acid],interaction with metformin,[4],do not show significant interaction
"O=C([O-])CC(=O)[O-].[Na+].[Na+] [sodium malonate, Sodium malonate]",synergistic killing with syrosingopine,[1]; [14],Synergistic killing
CCOC(=O)Oc1c(OC)cc(C(=O)O[C@@H]2C[C@@H]3CN4CCc5c([nH]c6cc(OC)ccc56)[C@H]4C[C@@H]3[C@H](C(=O)OC)[C@H]2OC)cc1OC [syrosingopine],"inhibition of growth, syrosingopine alone","[1]; 6.5 cells, syrosingopine titration without metformin, 3 days (FIG. 1A)",virtually non-inhibitory
same,"growth inhibition, combined versus each compound singly",[5]; OPM2,only a marginal effect
same,"growth inhibition, combined versus each compound singly",[6],only a marginal effect
same,"growth inhibition, combined versus each compound singly",[7],only a marginal effect
same,"growth inhibition, combined versus each compound singly",[8],only a marginal effect
same,apoptotic induction (annexin V / PI),[9],No apoptotic induction
same,apoptotic induction (annexin V / PI),[10],No apoptotic induction
same,signs of overt toxicity,[11]; DBA,no significant difference in body weight between the treatment groups (FIG. 5B) or any signs of overt toxicity
same,body weight at sacrifice,[11],no significant difference in body weight
same,inhibition of PHA-stimulated proliferation,[13],considerably less so
same,TMRM fluorescence peak,[2],955 arbitrary units
COC(=O)[C@@H]1[C@H]2C[C@H]3c4[nH]c5ccccc5c4CCN3C[C@@H]2CC[C@@H]1O [yohimbine HCl],interaction with metformin,[4],do not show significant interaction
O=C(O)[C@@H]1[C@H]2C[C@H]3c4[nH]c5ccccc5c4CCN3C[C@@H]2CC[C@@H]1O [yohimbinic acid],interaction with metformin,[4],do not show significant interaction
Stavudine,synergistic killing with syrosingopine,[1]; [14],induced synergistic killing
